One data set has as its system microbivorous nematodes. The note with it: 1-5 mgs KN3 per kg of soil, one week after application. As for the experimental part: (§1) The liquid potassium azide compound was added to the soil in an aqueous solution of amounts of: 1, 2, 3, 4 and 5 mgs KN3 per kg of soil. The formulation used for this experiment 1% KN3 and 0.5% sodium lauryl sulfate. Soil samples were collected one week after the application of the KN3 solution for nematological analysis using such techniques as the salad bowl incubation technique.

For a further data set, the system named is reniform nematode. As for the experimental part: as §1
Data set [1] relates to weeds.
Data set [2] relates to beneficial microbivorous nematodes. The protocol: (§2) In this example, the soil used was from a cotton field infested with the root-knot [Meloidogyne incognita], and lance [Hoplolaimus galeatus], nematodes—each a plant parasitic specie. The soil was mixed with washed siliceous river sand (in equal parts by volume), apportioned into one kg amounts in 4 L plastic bags and placed in pots. The test solution was prepared by dissolving 0.500 gms KN3 in an aqueous solution containing 50 mls of a 10% casein [w/v] solution in 0.1N NaOH and diluting with water to a final volume of 500 mls; the solution thus contained 1 mg KN3/ml. The solution was added to soil at rates of 1, 2, 4, 6, 8, and 10 mls/Kg soil. There were for each treatment and controls [no solution], a total of 7 pots each containing 1 Kg of soil. After application of the solution, for each rate, each pot was covered with a plastic bag. The pots were placed on a greenhouse bench and were arranged in a randomized block design. After 10 days the covers were removed, soil samples were collected from each pot for nematological analyses and “Young” soybean were planted [5 seed/pot]. The resulting plants were allowed to grow for 7 weeks when they were carefully separated from the soil and growth parameters measured. The roots and final soil samples were incubated to determine nematode populations. Nematode numbers in soil and roots were determined using the salad bowl incubation technique.

The subject of a further data set is "Young" soybean. The settings on record: range 1-8 mgs/Kg soil; sharpest increases at 1 and 2 mgs rates; soybean grown 7 weeks. As for the experimental part:
as §2

Data set [3] concerns root-knot nematode. The note with it: applications of ≧2 mgs KN3/Kg soil, 10 days after application. The protocol: as §2
The test system of the next data set is lance nematode. The note with it: applications of ≧2 mgs KN3/Kg soil, 10 days after application. As for the experimental part: as §2
The subject of data set [4] is plant parasitic nematodes. In words: Microplot experiment, amine-protein stabilized NaN3, nematode control (Example 3). The class given is in vivo. From the text:
(§3) The formulation contained 5% [w/v] […] Soil in the microplots was a sandy loam [pH=6.2; organic matter content <1.0%; C.E.C <10 meq/100 g soil] infested with the nematodes: Meloidogyne incognita, Paratrichodorus minor, Tylenchorhynchus claytoni, and Helicotylenchus dihystera 1]. Weeds in the plots were principally crabgrass [Digitaria sanguinalis], yellow nutsedge [Cyperus esculentum], pigweed [Amaranthus spp.], and morning glories [Ipomea spp., Jacquemontia tamnifolia].
(§4) The plots were covered with standard polyethylene [1 mil] tarp immediately after application of the chemical. After 10 days the cover was removed, the number of weeds was determined, soil samples for nematological analyses were taken and each plot was planted with two 4-week old ‘Huskie’ tomato seedlings. The plants were grown for 3 months and data were collected on yield, number of fruits, weed infestation and nematode populations.

The test system of the next data set is pepper or tomato plants. The settings on record: seedlings transplanted 6 weeks after NaN3 application, 100 and 200 kg/ha.
Data set [5] relates to weeds. As to the kind of experiment: Microplot experiment, amine-protein stabilized NaN3, weed control (Example 3). It counts as in vivo. The note with it: all but the three lowest rates of NaN3.
Source text: as §3, §4

In the next data set the test system is 'Huskie' tomato. The note with it: tomato grown 3 months.
Source text: as §3, §4

The subject of another data set is "Rowden" cotton. The protocol: (§5) The aqueous formulation was a solution containing 1% [w/v] […] After thorough mixing, the contents of a bag were poured into 1 L capacity, 10-cm-diam cylindrical plastic pots which were then covered with standard polyethylene [[…]]. Each rate and the no treatment control was represented by 7 replications [pots] arranged in a randomized complete block design. Ten days after application of the chemical solution, the pots were uncovered and 5 seed of “Rowden” cotton [Gossypium hirsutum] were planted in each pot. The resulting plants were grown for 8 weeks. When the plants were removed after 8 weeks, soil samples were collected for nematological analyses. The shoots and roots of the plants were weighed and the root systems were examined and indexed for disease severity symptoms. Following examination, the roots were incubated to determine nematode populations.

Data set [6] relates to plant parasitic nematodes (cotton wilt complex Fusarium oxysporum f sp. vasinfectum×Meloidogyne incognita). The settings on record: all NaN3 dosages, 10-100 mgs a.i./kg soil; 8 weeks after planting. The protocol: as §5
For data set [7], the system named is root-knot nematode. The note with it: dosages of 100 and 200 kg/ha, 3 weeks after application. The source says: (§6) The soil was a calcareous silty clay loam with pH 7.8 and <1% organic matter. […] Each dosage rate was delivered into pre-acidified soil as well as in non-acidified and administered using 3 different water levels: 3, 10, and 15 L/m^2. Acidification was with H2SO4 to lower soil pH to less than 7.00. […] After 3 weeks the soil was uncovered and a soil sample was removed for nematological analyses and the weeds were counted.

The subject of data set [8] is coastal bermuda grass, yellow nutsedge and other weeds.
Source text: as §6

The test system of another data set is 'Black Beauty' eggplant. The settings on record: eggplant grown 2 months; rates 0-5.0 g/plot. From the text:
(§7) The square microplots of 1 ft^2 [929 cm^2] and 2 feet [61 cms] deep having an open-bottom were used. Each microplot was delimited by a terra-cotta chimney flue. The soil filling the plot was a sandy loam [pH=6.2; organic matter content <1.0%; C.E.C <10 meq/100 g soil] and was infested with the nematodes: Meloidogyne incognita [root-knot], Paratrichodorus minor [stubby root], Tylenchorhynchus claytoni [stunt], and Helicotylenchus dihystera [spiral]. Weeds introduced into the plots were principally crabgrass [Digitaria sanguinalis], yellow nutsedge [Cyperus esculentum], pigweed [Amaranthus spp.], and morning glories [Ipomea spp., Jacquemontia tamnifolia].
(§8) The plots were covered with standard polyethylene [1 mil] and after 10 days the cover was removed, the number of weeds was determined, soil samples for nematological analyses were taken and each plot was planted with two 3-week old ‘Black Beauty’ eggplant [Solanum melongena] seedlings. The plants were grown for 2 months and data were collected on yield, weed infestation and nematode populations.

The subject of data set [9] is weeds.
Source text: as §7, §8
This is another data set of the same source.

The test system of data set [10] is plant parasitic nematodes.
Source text: as §7, §8

Setting [11] is: plots treated with ≦2.0 g NaN3 rates.
The mark [12] stands for this setting: three highest rates (3.0, 4.0, 5.0 g/plot).

Molecules are shown by their SMILES. Read-outs that look alike come from different tables or passages of the source.

These results are taken from patent publication US6852341B2 (priority 2000, dated 2005).

On to `[K+].[N-]=[N+]=[N-]` [KN3, potassium azide], for which the “numbers of microbivorous nematodes in response to increasing KN3” value with microbivorous nematodes was “declined in an almost linear fashion”. Also, the “numbers of reniform nematode in response to increasing KN3” value in the data set with reniform nematode (1-5 mgs KN3 per kg of soil, one week after application) is given as “declined exponentially”. The “control of the reniform nematodes” value with reniform nematode (rates of 4-5 mg of KN3 per kg of soil) was approximately 100%. The number of weeds result with weeds [1] (KN3 rates of 20-200 mg/kg of soil) is reported as “declining in proportion to rates used”. In the data set with weeds [1] (rates of greater than 140 mg/kg of soil), the “control rates for weeds” value is “over 80%”. Further, the “numbers of beneficial microbivorous nematodes” value in [2] (1 and 2 mg application rates) was “pronounced stimulation”. Also, the “populations of beneficial microbivorous nematodes” value in [2] (application rates <6 KN3/Kg, final soil) was “not adversely affected”. Moreover, the “application rate necessary to significantly reduce or eliminate microbivorous nematodes” value in [2] (in vivo) is reported as more than 4 mgs/Kg soils. For the same compound, the “plant response as measured by the weights of shoots and roots” value in the data set on "Young" soybean is “positive and pronounced”. Besides, the “root-knot nematode population in the preplant sample” value with root-knot nematode [3] was “eliminated”. Also, the “lance nematode population in the preplant sample” value in the data set with lance nematode is on record as “eliminated”.
As to `[N-]=[N+]=[N-].[Na+]` [NaN3, sodium azide], the “nematodes in soil samples at planting” value in data set [4] (10 days after drench, 0.5-5.0 g/plot, controls had significant numbers of all species) was “did not contain nematodes”. The results for the “plant parasitic nematodes at the end of the experiment” value in data set [4] (all rates of application), in [10] (setting [11]) and in data set [10] (setting [12]) were “no plant parasitic nematodes”, “significant populations” and “no plant parasitic nematodes”, respectively. Moreover, in the data set with pepper or tomato plants, the “phytotoxicity to pepper or tomato plants” value is “no evidence of phytotoxicity”. Further, in the data set with weeds [5], the “weeds at planting time” value is reported as “no weeds”. The “yield and number of fruits” value was “increased directly in response to NaN3 rates from 0-4 g/plot” in the data set on 'Huskie' tomato; “increased directly in response to NaN3 rates from 0-1.5 g/plot and leveled out” with 'Black Beauty' eggplant. For the same compound, the figures for the “weights of shoots and roots” value with "Rowden" cotton (NaN3 rates 10-60 mgs/kg soil) and in the data set with "Rowden" cotton (NaN3 rates ≧70 mgs/kg soil) were “Sharp increases” and “no additional weight increments”, respectively. Also, in the data set with "Rowden" cotton (all NaN3 dosages, 10-100 mgs/kg soil), the “cotton root health [root condition index]” value was “markedly improved”. Also, the “plant parasitic nematodes in soil and roots” value in data set [6] was “eliminated from the soil and roots”. Moreover, in the data set on root-knot nematode [7], the nematodes controlled entry was “greater than 90%”. Further, in data set [8] (100 and 200 kg/ha), the effectiveness against nutsedge result is given as “particularly effective”. Besides, the weeds controlled result in data set [8] (dosages of 100 and 200 kg/ha, 3 weeks after application) is given as “all weeds”. Further, in the data set with weeds [9] (10 days after drench, all but the two lowest rates of NaN3), the weeds at planting entry is “no weeds”. Also, the “weeds at the end of the experiment” value in the data set on weeds [9] (setting [11]) was “significant populations”. Moreover, the “weed infestation at the end of the experiment” value in the data set on weeds [9] (setting [12]) was “no significant weed infestation”. Besides, the “nematodes in planting time soil samples” value in [10] (10 days after drench, plots treated with 0.5-5.0 g sodium azide/plot, control plots infested with all species) is “no nematodes”.
